{
  "source": "patent US9688760B2",
  "about": "“Anti-leukocyte adhesion for the mitigation of potential adverse events caused by CD3-specific binding domains” (AMGEN RESEARCH (MUNICH) GMBH, priority 2013, dated 2017)",
  "key": {"HUVEC": {"test_system": "HUVEC", "experiment": "In vitro flow chamber: T cell-rolling and adhesion on HUVEC, long-term conditions", "type": "cell-based, human", "settings": "40 min", "protocol": "(§1) Human brain microvascular endothelial cells (HBMEC) (#1000, Sciencell Research Laboratories) or human umbilical vein endothelial cells (HUVEC) (#C-12200, Promocell) were used as endothelial cell-model. Cryopreserved HBMEC at passage 1 (>5×10^5 cells/ml) were first cultivated in fibronectin-coated Nunclon-treated 75 cm^2 cell culture flasks (#156499, Nunc) at 37° C. and 5% CO2 in a Heraeus Cytoperm 2 (Thermo Scientific) according to the manufacturer's instructions. Sub-cultivation of HBMEC was done with the Detach Kit (#C-41200, Promocell) consisting of HEPES-buffered balanced salt solution (#C-40000, Promocell), trypsin-EDTA solution (0.04%/0.03%) (#C-41000, Promocell) and trypsin neutralization solution (TNS, #C-41100, Promocell). Briefly, the medium was aspirated from the HBMEC-layer and cells were washed with 2 ml of HEPES-buffered balanced salt solution. Addition of 2 ml of trypsin-EDTA solution for 1-5 min at room temperature led to detachment of HBMEC from the flask bottom. Inactivation of trypsin-EDTA solution was performed by addition of 2 ml of trypsin neutralization solution to the cell suspension. Cells were centrifuged at 300 g for 4 min in a Heraeus Megafuge 40 (Thermo Scientific) and seeded at a cell density of 5×10^5 cells per gelatin-coated 75 cm^2 cell culture flask (#L7230, Biochrom). HBMEC for rolling and adhesion experiments were cultivated in RPMI 1640 medium (#FG1215, Biochrom) supplemented with Nu-Serum IV (10%) (#355505, BD Biosciences), dialyzed FBS (10%) (#SZ0115, Biochrom), MEM-vitamins (1%) (#K0373, Biochrom), L-glutamine (1%) (#K0283, Biochrom), sodium-pyruvate (1%) (#L0473, Biochrom), heparin (10 U/ml) (#L6510, Biochrom), and […] cell growth factor ECGS (30 μg/ml) (#02-102, Millipore). Cultivation of HUVEC was done in endothelial cell growth medium (#C-22010, Promocell) supplemented with dialyzed FBS (10%) (#SZ0115, Biochrom) using gelatin-coated 75 cm^2 cell culture flasks. Sub-cultivation of HUVEC was performed with the Detach Kit ([…], Promocell) and cells were seeded at a cell density of 4.0-7.5×10^5 cells per 75 cm^2 cell culture flask.\nIsolation of human PBMC from blood was performed by modified density gradient centrifugation as described elsewhere. Briefly, 15-20 ml of freshly drawn heparinized blood was transferred in Biocoll (#L6115, Biochrom)-containing Leukosep tubes (#227290, Greiner bio-one) and centrifuged in a Hettich Rotanta 460 RS Type 5606 (Hettich Laborapparate) at 1066 g for 15 min. After removal of the plasma fraction the PBMC containing phase was transferred in a new tube and washed twice with FACS-buffer (D-PBS #L1820, 5% FBS #SO115, Biochrom). Erythrocyte lysis was performed with lysis buffer (8.29 g/l NH4Cl, 1.00 g/l KHCO3, 0.037 g/l EDTA) for 5 min at room temperature. […]"}, "patients": {"test_system": "patients", "experiment": "Clinical studies of Blinatumomab in B-NHL and B-precursor ALL", "type": "in vivo, human", "excerpt": "Various clinical studies evaluating the safety and efficacy of Blinatumomab have been conducted both in B-NHL (Bargou et al. Science. 2008; 321:974-7) and B-precursor ALL (Topp et al. J Clin Oncol. 2011; 29:2493-8). […] These studies established clinical proof of concept for the high therapeutic potential of the bispecific single-chain antibody format in general and of Blinatumomab in special and validated its further development in B-NHL, ALL and CLL. Throughout these studies in B-NHL and B-precursor ALL several pharmacodynamic markers were assessed. […] It was characterized by a swift redistribution after start of infusion and any dose step, i.e. a fast disappearance of circulating T cells within the first 6-12 hours and a subsequent reappearance during the following 2-7 days where high initial B cell-counts correlated with decelerated kinetics of T cell-reappearance (FIG. 1A). This course seemed to be triggered by any significant dose changes of Blinatumomab rather than absolute serum concentrations. In addition, T cell-adhesiveness was measured throughout treatment week 1 by analyzing binding of soluble ICAM-1-Fc fusion proteins to LFA-1 on T cells. […] This finding coincided with T cell-redistribution and supported the concept of Blinatumomab-induced T cell-adhesion to endothelium during redistribution."}, "HBMEC": {"test_system": "HBMEC", "experiment": "In vitro flow chamber: T cell-rolling on HBMEC, long-term conditions", "type": "cell-based, human", "protocol": "as §1\nIsolation of human PBMC from blood was performed by modified density gradient centrifugation as described elsewhere. Briefly, 15-20 ml of freshly drawn heparinized blood was transferred in Biocoll (#L6115, Biochrom)-containing Leukosep tubes (#227290, Greiner bio-one) and centrifuged in a Hettich Rotanta 460 RS Type 5606 (Hettich Laborapparate) at 1066 g for 15 min. After removal of the plasma fraction the PBMC containing phase was transferred in a new tube and washed twice with FACS-buffer (D-PBS #L1820, 5% FBS #SO115, Biochrom). Erythrocyte lysis was performed with lysis buffer (8.29 g/l NH4Cl, 1.00 g/l KHCO3, 0.037 g/l EDTA) for 5 min at room temperature. For subsequent purification of untouched T cells the human Pan T cell-isolation Kit II (#130-091-156, Miltenyi Biotec) was used according to the manufacturer's instructions.\nThe ibidi Pump System (#10902, ibidi) was used for cultivation of endothelial cells under flow conditions as well as for performing adhesion and rolling assays of human T cells on endothelial cells. The system consists of the ibidi Pump (#10905, ibidi) and the ibidi Fluidic Unit (#10903, ibidi) which work together to generate a unidirectional flow of medium in an attached slide with a defined channel height. The system is controlled by the ibidi Pump Control software (#10908, notebook+software, ibidi). For cultivation of HBMEC or HUVEC under flow conditions, HBMEC or HUVEC were seeded at a cell density of 2.5×10^6 cells/ml into μ-slide I^0.4 Luer Collagen IV (#80172, ibidi) or μ-slide I^0.4 Luer ibiTreat (#80176, ibidi), respectively according to the manufacturer's instructions and cultivated with a perfusion set “yellow/green” (#10964, ibidi) for 48 h under wall shear stress of 5 or 10 dyn/cm^2, respectively. […]"}},
  "data": [
    {"substance": "Blinatumomab: recombinant CD19×CD3 bispecific scFv antibody consisting of four immunoglobulin variable domains assembled into a single polypeptide chain", "values": [
      {"measurement": "increase of number of adhering T cells", "setting": "HUVEC; +AMG 103 10 ng/ml vs T cells alone, long-term", "value": 2.1, "unit": "fold"},
      {"measurement": "mean T cell-rolling velocity±SD", "setting": "HUVEC; non-stimulated HUVEC (minocycline experiment), +AMG 103 10 ng/ml, control −AMG 103 169", "value": "127±41", "unit": "μm/sec"},
      {"measurement": "time of disappearance of circulating T cells after start of infusion and any dose step", "setting": "patients; T cell-redistribution, irrespective of dose level", "value": "6 to 12", "unit": "h"},
      {"measurement": "time to return of LFA-1 binding affinity to baseline", "setting": "patients; after peak", "value": "≤ 5", "unit": "days"},
      {"measurement": "time to peak of increased LFA-1 binding affinity to ICAM-1", "setting": "patients; binding of soluble ICAM-1-Fc to LFA-1 on T cells, treatment week 1", "value": "≤ 48", "unit": "h"},
      {"measurement": "time of reappearance of circulating T cells", "setting": "patients; following T cell disappearance", "value": "2 to 7", "unit": "days"},
      {"measurement": "T cell-rolling velocity immediately after addition", "setting": "HBMEC; 10 ng/ml Blinatumomab, 0 min, long-term", "value": "no decrease of T cell-rolling velocity was detectable"},
      {"measurement": "mean T cell-rolling velocity±SD", "setting": "HBMEC; 10 ng/ml Blinatumomab, 45 min after addition, long-term, control −AMG 103 323±78", "value": "209±40", "unit": "μm/sec"},
      {"measurement": "mean T cell-rolling velocity±SD", "setting": "HBMEC; histamine-stimulated HBMEC, +AMG 103 10 ng/ml, 45 min, control −AMG 103 430±92", "value": "281±96", "unit": "μm/sec"},
      {"measurement": "mean T cell-rolling velocity±SD", "setting": "HBMEC; non-stimulated HBMEC (PPS experiment), +AMG 103 10 ng/ml, 40 min, control −AMG 103 399±153", "value": "263±66", "unit": "μm/sec"},
      {"measurement": "mean T cell-rolling velocity±SD", "setting": "HBMEC; non-stimulated HBMEC (anti-CD11a experiment), +AMG 103 10 ng/ml, 10 min, control −AMG 103 304±40", "value": 214, "unit": "μm/sec"},
      {"measurement": "mean T cell-rolling velocity±SD", "setting": "HBMEC; non-stimulated HBMEC (anti-CD162 experiment), +AMG 103 10 ng/ml, 45 min, control −AMG 103 539±149", "value": "428±89", "unit": "μm/sec"},
      {"measurement": "mean T cell-rolling velocity±SD", "setting": "HBMEC; non-stimulated HBMEC (anti-ICAM-1 experiment), +AMG 103 10 ng/ml, 30 min, control −AMG 103 407±90", "value": 335, "unit": "μm/sec"},
      {"measurement": "mean T cell-rolling velocity±SD", "setting": "HBMEC; non-stimulated HBMEC (anti-P-selectin experiment), +AMG 103 10 ng/ml, 40 min, control −AMG 103 449±90", "value": "370±55", "unit": "μm/sec"},
      {"measurement": "mean T cell-rolling velocity±SD", "setting": "HBMEC; non-stimulated HBMEC (natalizumab experiment), +AMG 103 10 ng/ml, 40 min, control −AMG 103 482±149", "value": "359±102", "unit": "μm/sec"},
      {"measurement": "mean T cell-rolling velocity±SD", "setting": "HBMEC; non-stimulated HBMEC (recombinant P-selectin experiment), +AMG 103 10 ng/ml, 45 min, control −AMG 103 386±77", "value": "340±68", "unit": "μm/sec"}
    ]}
  ]
}
